Data reported in ChEMBL document CHEMBL5725324, “Amide compounds for treatment of complement mediated disorders” (2017).

Target: Complement factor D (Homo sapiens, UniProt P00746)
Assay: Human Factor D Assay: Human factor D (purified from human serum, Complement Technology, Inc.) at 80 nM final concentration is incubated with test compound at various concentrations for 5 minutes at room temperature in 50 mM Tris, 1M NaCl, pH 7.5. A synthetic substrate Z-L-Lys-SBzl and DTNB (Ellman's reagent) are added to final concentrations of 100 μM each. The increase in color is recorded at OD405 nm in a microplate in kinetic mode over 30 minutes with 30 second time points in a […]. IC50 values are calculated by non-linear regression from the percentage of inhibition of complement factor D activity as a function of test compound concentration.

Sequence of Complement factor D (P00746 whole entry): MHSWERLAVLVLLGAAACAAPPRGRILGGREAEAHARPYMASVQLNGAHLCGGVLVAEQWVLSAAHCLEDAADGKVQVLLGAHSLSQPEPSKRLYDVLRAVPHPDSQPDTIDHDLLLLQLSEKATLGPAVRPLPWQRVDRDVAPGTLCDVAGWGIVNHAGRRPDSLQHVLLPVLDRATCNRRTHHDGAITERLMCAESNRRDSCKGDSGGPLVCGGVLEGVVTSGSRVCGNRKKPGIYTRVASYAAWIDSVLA

In the case of `CC(=O)c1cn(CC(=O)N2[C@@H]3C[C@@H]3C[C@H]2C(=O)NCc2cccc(Cl)c2F)c2ccc(NC(=O)N3CCCC3)cc12`, the IC50 is reported as < 1000 nM.
